What follows are molecules tested against human c-MER catalytic domain (Homo sapiens (Human), UniProt Q12866) (assay: TR-FRET Kinase Activity Biochemical Assay (LanthaScreen)). Conditions: 10 uM ATP, 1 hour, kinase not given.
human c-MER catalytic domain, sequence (Q12866 587-858): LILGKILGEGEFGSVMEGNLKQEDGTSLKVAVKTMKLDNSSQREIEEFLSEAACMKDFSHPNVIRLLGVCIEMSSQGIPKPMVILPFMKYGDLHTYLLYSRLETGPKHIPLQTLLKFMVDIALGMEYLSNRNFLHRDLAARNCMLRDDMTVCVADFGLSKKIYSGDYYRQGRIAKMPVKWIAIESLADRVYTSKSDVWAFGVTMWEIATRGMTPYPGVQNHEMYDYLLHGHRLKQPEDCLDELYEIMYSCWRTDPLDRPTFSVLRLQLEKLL
Excerpt: For the SAR (structure-activity relationship) and compound screening, LanthaScreen™ TR-FRET (Time-Resolved fluorescence energy transfer) assay was employed using the phospho-tyrosine specific Terbium (Tb)-labelded antibody with a fluorescein labeled poly-GT (glutamate-tyrosine) as a substrate. Upon excitation at 340 nm by UV, the energy from Tb donor of the antibody is transferred to the fluorescein of the phosphorylated poly GT substrate, and fluorescein emits light at 520 nm. The ratio between the intensity of […] was used to quantify the level of kinase activity. The recombinant proteins of human c-MER and AXL catalytic domains, Fluorescein-labeled poly-GT substrate, Tb-labeled anti-phosphorylated tyrosine antibodies, the kinase assay buffer, and 0.5M EDTA solution were purchased (Life technologies, USA). The TR-FRET assays were carried out in the white low volume 384-well plate (Corning, USA). […] 10 mM EDTA was added to terminate the enzyme reaction, and the level of phosphorylation of poly-GT substrate was determined following 30 min incubation with 2 nM Tb-labeled antibody. The fluorescence intensity was measured with Envision™ plate reader (PerkinElmer, USA).
Work on `CN1CCN(Cc2ccc(-c3ccc(NC(=O)N4CC[C@@H](NC(=O)c5cc(-c6cnn(C)c6)cnc5N)C4)cc3)cc2)CC1` [Example 273, (R)-2-amino-5-(1-methyl-1H-pyrazol-4-yl)-N-(1-((4′-((4-methylpiperazin-1-yl)methyl)-[1,1′-biphenyl]-4-yl)carbamoyl)pyrrolidin-3-yl)nicotinamide] yielded an IC50 greater than 1000 nM. `Cn1cc(-c2cnc(N)c(C(=O)N[C@@H]3CCN(C(=O)Oc4cccc(-c5ccc(CCC(=O)O)cc5)c4)C3)c2)cn1` [Example 276, (R)-3-(3′-((3-(2-amino-5-(1-methyl-1H-pyrazol-4-yl)nicotinamido)pyrrolidine-1-carbonyl)oxy)-[1,1′-biphenyl]-4-yl) propanoic acid] showed an IC50 of 100 to 1000 nM. Work on `Cn1cc(-c2cnc(N)c(C(=O)N[C@@H]3CCN(C(=O)Oc4cccc(-c5cccc(C(=O)NCCC#N)c5)c4)C3)c2)cn1` [Example 277, 3′-((2-cyanoethyl)carbamoyl)-[1,1′-biphenyl]-3-yl (R)-3-(2-amino-5-(1-methyl-1H-pyrazol-4-yl)nicotinamido)pyrrolidine-1-carboxylate] yielded an IC50 of 100 to 1000 nM. Work on `Cn1cc(-c2cnc(N)c(C(=O)N[C@@H]3CCN(C(=O)Oc4cccc(-c5cnn(Cc6ccccc6)c5)c4)C3)c2)cn1` [Example 283, 3-(1-benzyl-1H-pyrazol-4-yl)phenyl (R)-3-(2-amino-5-(1-methyl-1H-pyrazol-4-yl)nicotinamido)pyrrolidine-1-carboxylate] yielded an IC50 of 100 to 1000 nM. Molecule `Cn1cc(-c2cnc(N)c(C(=O)N[C@@H]3CCN(C(=O)Oc4cccc(-c5cnn(C6CCNCC6)c5)c4)C3)c2)cn1` [Example 285, 3-(1-(piperidin-4-yl)-1H-pyrazol-4-yl)phenyl (R)-3-(2-amino-5-(1-methyl-1H-pyrazol-4-yl)nicotinamido)pyrrolidine-1-carboxylate] has an IC50 of 100 to 1000 nM. Molecule `Cn1cc(-c2cnc(N)c(C(=O)N[C@@H]3CCN(C(=O)Oc4cccc(-c5cnn(CCN6CCCC6)c5)c4)C3)c2)cn1` [Example 286, 3-(1-(2-(pyrrolidin-1-yl)ethyl)-1H-pyrazol-4-yl)phenyl (R)-3-(2-amino-5-(1-methyl-1H-pyrazol-4-yl)nicotinamido)pyrrolidine-1-carboxylate] has an IC50 of 100 to 1000 nM. In the case of `Cn1cc(-c2cnc(N)c(C(=O)N[C@@H]3CCN(C(=O)Oc4cc(Cl)cc(-c5ccc(CO)cc5)c4)C3)c2)cn1` [Example 291, 5-chloro-4′-(hydroxymethyl)-[1,1′-biphenyl]-3-yl (R)-3-(2-amino-5-(1-methyl-1H-pyrazol-4-yl)nicotinamido)pyrrolidine-1-carboxylate], the IC50 is reported as 10 to 100 nM. With `CN1CCN(Cc2ccc(-c3cc(Cl)cc(OC(=O)N4CC[C@@H](NC(=O)c5cc(-c6cnn(C)c6)cnc5N)C4)c3)cc2)CC1` [Example 292, 5-chloro-4′-((4-methylpiperazin-1-yl)methyl)-[1,1′-biphenyl]-3-yl (R)-3-(2-amino-5-(1-methyl-1H-pyrazol-4-yl)nicotinamido)pyrrolidine-1-carboxylate] the IC50 was less than 10 nM. `Cn1cc(-c2cnc(N)c(C(=O)N[C@@H]3CCN(C(=O)Oc4ccc5ccc(OC6CCNCC6)cc5c4)C3)c2)cn1` [Example 294, 7-(piperidin-4-yloxy)naphthalen-2-yl (R)-3-(2-amino-5-(1-methyl-1H-pyrazol-4-yl)nicotinamido)pyrrolidine-1-carboxylate] gave an IC50 of 10 to 100 nM. Molecule `CN(C)CCCOc1ccc2ccc(OC(=O)N3CC[C@@H](NC(=O)c4cc(-c5cnn(C)c5)cnc4N)C3)cc2c1` [Example 295, 7-(3-(dimethylamino)propoxy)naphthalen-2-yl (R)-3-(2-amino-5-(1-methyl-1H-pyrazol-4-yl)nicotinamido)pyrrolidine-1-carboxylate] has an IC50 of 10 to 100 nM. `CN(C)CCOc1ccc2ccc(OC(=O)N3CC[C@@H](NC(=O)c4cc(-c5cnn(C)c5)cnc4N)C3)cc2c1` [Example 296, 7-(2-(dimethylamino)ethoxy)naphthalen-2-yl (R)-3-(2-amino-5-(1-methyl-1H-pyrazol-4-yl)nicotinamido)pyrrolidine-1-carboxylate] gave an IC50 of 10 to 100 nM. `CN1CCC(Oc2ccc3ccc(OC(=O)N4CC[C@@H](NC(=O)c5cc(-c6cnn(C)c6)cnc5N)C4)cc3c2)CC1` [Example 297, 7-((1-methylpiperidin-4-yl)oxy)naphthalen-2-yl (R)-3-(2-amino-5-(1-methyl-1H-pyrazol-4-yl)nicotinamido)pyrrolidine-1-carboxylate] gave an IC50 of 100 to 1000 nM. `CN(C)CCOc1ccc2cc(OC(=O)N3CC[C@@H](NC(=O)c4cc(-c5cnn(C)c5)cnc4N)C3)ccc2c1` [Example 300, 6-(2-(dimethylamino)ethoxy)naphthalen-2-yl (R)-3-(2-amino-5-(1-methyl-1H-pyrazol-4-yl)nicotinamido)pyrrolidine-1-carboxylate] gave an IC50 of 100 to 1000 nM. In the case of `CN(C)CCCOc1ccc2cc(OC(=O)N3CC[C@@H](NC(=O)c4cc(-c5cnn(C)c5)cnc4N)C3)ccc2c1` [Example 301, 6-(3-(dimethylamino)propoxy)naphthalen-2-yl (R)-3-(2-amino-5-(1-methyl-1H-pyrazol-4-yl)nicotinamido)pyrrolidine-1-carboxylate], the IC50 is reported as 100 to 1000 nM. For `Cn1cc(-c2cnc(N)c(C(=O)N[C@@H]3CCN(C(=O)Oc4ccc5cc(OC6CCNCC6)ccc5c4)C3)c2)cn1` [Example 302, 6-(piperidin-4-yloxy)naphthalen-2-yl (R)-3-(2-amino-5-(1-methyl-1H-pyrazol-4-yl)nicotinamido)pyrrolidine-1-carboxylate], the IC50 was 10 to 100 nM. `Cn1cc(-c2cnc(N)c(C(=O)N[C@@H]3CCN(C(=O)Oc4cccc(OCC5CCNCC5)c4)C3)c2)cn1` [Example 304] showed an IC50 of 100 to 1000 nM. `Cn1cc(-c2cnc(N)c(C(=O)N[C@@H]3CCN(C(=O)Oc4cccc(-c5ccc(CNCC6CNC6)cc5)c4)C3)c2)cn1` [Example 309, 4′-(((azetidin-3-ylmethyl)amino)methyl)-[1,1′-biphenyl]-3-yl (R)-3-(2-amino-5-(1-methyl-1H-pyrazol-4-yl)nicotinamido)pyrrolidine-1-carboxylate] showed an IC50 of 10 to 100 nM. `Cn1cc(-c2cnc(N)c(C(=O)N[C@@H]3CCN(C(=O)Oc4cccc(-c5ccc(CN6CCC(N)CC6)cc5)c4)C3)c2)cn1` [Example 317, 4′-((4-aminopiperidin-1-yl)methyl)-[1,1′-biphenyl]-3-yl (R)-3-(2-amino-5-(1-methyl-1H-pyrazol-4-yl)nicotinamido)pyrrolidine-1-carboxylate] gave an IC50 of 10 to 100 nM. Work on `Cn1cc(-c2cnc(N)c(C(=O)N[C@@H]3CCN(C(=O)Oc4cccc(-c5ccc(CNCC(=O)O)cc5)c4)C3)c2)cn1` [Example 326, (R)-((3′-((3-(2-amino-5-(1-methyl-1H-pyrazol-4-yl)nicotinamido)pyrrolidine-1-carbonyl)oxy)-[1,1′-biphenyl]-4-yl)methyl)glycine] yielded an IC50 of 100 to 1000 nM. `Cn1cc(-c2cnc(N)c(C(=O)N[C@@H]3CCN(C(=O)Oc4cccc(-c5ccc(CN6CC[C@@H](N)C6)cc5)c4)C3)c2)cn1` [Example 330, 4′-(((R)-3-aminopyrrolidin-1-yl)methyl)-[1,1′-biphenyl]-3-yl (R)-3-(2-amino-5-(1-methyl-1H-pyrazol-4-yl)nicotinamido)pyrrolidine-1-carboxylate] was tested, and the IC50 was 10 to 100 nM. `Cn1cc(-c2cnc(N)c(C(=O)N[C@@H]3CCN(C(=O)Oc4cccc(-c5ccc(CN6CC[C@H](N)C6)cc5)c4)C3)c2)cn1` [Example 331, 4′-(((S)-3-aminopyrrolidin-1-yl)methyl)-[1,1′-biphenyl]-3-yl (R)-3-(2-amino-5-(1-methyl-1H-pyrazol-4-yl)nicotinamido)pyrrolidine-1-carboxylate] showed an IC50 of 10 to 100 nM. `Cn1cc(-c2cnc(N)c(C(=O)N[C@@H]3CCN(C(=O)Oc4cccc(-c5ccc(CN6CCC[C@H](N)C6)cc5)c4)C3)c2)cn1` [Example 332, 4′-(((S)-3-aminopiperidin-1-yl)methyl)-[1,1′-biphenyl]-3-yl (R)-3-(2-amino-5-(1-methyl-1H-pyrazol-4-yl)nicotinamido)pyrrolidine-1-carboxylate] was tested, and the IC50 was 10 to 100 nM. In the case of `Cn1cc(-c2cnc(N)c(C(=O)N[C@@H]3CCN(C(=O)Oc4cccc(-c5ccc(CN6CCCC6)cc5)c4)C3)c2)cn1` [Example 333, 4′-(pyrrolidin-1-ylmethyl)-[1,1′-biphenyl]-3-yl (R)-3-(2-amino-5-(1-methyl-1H-pyrazol-4-yl)nicotinamido)pyrrolidine-1-carboxylate], the IC50 is reported as 10 to 100 nM. `Cn1cc(-c2cnc(N)c(C(=O)N[C@@H]3CCN(C(=O)Oc4cccc(-c5ccc(CN6CCCCC6)cc5)c4)C3)c2)cn1` [Example 334, 4′-(piperidin-1-ylmethyl)-[1,1′-biphenyl]-3-yl (R)-3-(2-amino-5-(1-methyl-1H-pyrazol-4-yl)nicotinamido)pyrrolidine-1-carboxylate] showed an IC50 of 100 to 1000 nM. `Cn1cc(-c2cnc(N)c(C(=O)N[C@@H]3CCN(C(=O)Oc4cccc(-c5ccc(CN6CCOCC6)cc5)c4)C3)c2)cn1` [Example 335, 4′-(morpholinomethyl)-[1,1′-biphenyl]-3-yl (R)-3-(2-amino-5-(1-methyl-1H-pyrazol-4-yl)nicotinamido)pyrrolidine-1-carboxylate] was tested, and the IC50 was 100 to 1000 nM. In the case of `Cn1cc(-c2cnc(N)c(C(=O)N[C@@H]3CCN(C(=O)Oc4cccc(-c5cccc(CN6CC[C@@H](N)C6)c5)c4)C3)c2)cn1` [Example 336, 3′-(((R)-3-aminopyrrolidin-1-yl)methyl)-[1,1′-biphenyl]-3-yl (R)-3-(2-amino-5-(1-methyl-1H-pyrazol-4-yl)nicotinamido)pyrrolidine-1-carboxylate], the IC50 is reported as 100 to 1000 nM.
